Measured values from ChEMBL document CHEMBL5291721, “A preclinical secondary pharmacology resource illuminates target-adverse drug reaction associations of marketed drugs” (Nat Commun, 2023).

How the values were obtained:
Vasopressin V2 receptor = Vasopressin V2 receptor (Homo sapiens, UniProt P30518)
B2 bradykinin receptor = biological target: T1, B2 bradykinin receptor (Homo sapiens, UniProt P30411)
T1 sequence (P30411 whole entry): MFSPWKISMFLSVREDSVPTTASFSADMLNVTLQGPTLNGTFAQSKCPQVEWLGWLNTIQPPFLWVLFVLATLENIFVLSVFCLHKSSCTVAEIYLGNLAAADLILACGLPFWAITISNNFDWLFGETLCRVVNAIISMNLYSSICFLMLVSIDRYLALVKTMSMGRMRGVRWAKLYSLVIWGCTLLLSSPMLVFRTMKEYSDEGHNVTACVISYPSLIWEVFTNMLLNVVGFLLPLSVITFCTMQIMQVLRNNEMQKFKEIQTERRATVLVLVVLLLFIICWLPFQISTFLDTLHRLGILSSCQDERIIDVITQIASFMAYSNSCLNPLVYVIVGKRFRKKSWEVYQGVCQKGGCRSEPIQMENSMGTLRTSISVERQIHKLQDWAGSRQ

[1] = biological target: T2, Alpha-2A adrenergic receptor (Homo sapiens, UniProt P08913); format: functional, cell-based
T2 sequence (P08913 whole entry): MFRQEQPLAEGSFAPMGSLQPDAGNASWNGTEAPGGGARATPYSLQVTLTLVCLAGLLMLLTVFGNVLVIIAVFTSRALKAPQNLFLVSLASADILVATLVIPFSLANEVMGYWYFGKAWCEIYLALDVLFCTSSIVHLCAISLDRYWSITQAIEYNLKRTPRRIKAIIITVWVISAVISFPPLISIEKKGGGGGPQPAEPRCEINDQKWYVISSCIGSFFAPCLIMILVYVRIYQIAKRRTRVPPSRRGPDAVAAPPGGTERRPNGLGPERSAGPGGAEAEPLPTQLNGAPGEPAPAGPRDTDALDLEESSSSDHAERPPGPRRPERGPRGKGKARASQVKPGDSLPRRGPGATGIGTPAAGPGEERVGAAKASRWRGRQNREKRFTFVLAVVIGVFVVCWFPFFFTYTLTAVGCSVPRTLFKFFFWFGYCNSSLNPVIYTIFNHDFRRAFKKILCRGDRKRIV

Histamine H2 receptor = Histamine H2 receptor (Homo sapiens, UniProt P25021); format: functional, cell-based
[2] = biological target: T3, Alpha-2C adrenergic receptor (Homo sapiens, UniProt P18825); format: functional
T3 sequence (P18825 whole entry): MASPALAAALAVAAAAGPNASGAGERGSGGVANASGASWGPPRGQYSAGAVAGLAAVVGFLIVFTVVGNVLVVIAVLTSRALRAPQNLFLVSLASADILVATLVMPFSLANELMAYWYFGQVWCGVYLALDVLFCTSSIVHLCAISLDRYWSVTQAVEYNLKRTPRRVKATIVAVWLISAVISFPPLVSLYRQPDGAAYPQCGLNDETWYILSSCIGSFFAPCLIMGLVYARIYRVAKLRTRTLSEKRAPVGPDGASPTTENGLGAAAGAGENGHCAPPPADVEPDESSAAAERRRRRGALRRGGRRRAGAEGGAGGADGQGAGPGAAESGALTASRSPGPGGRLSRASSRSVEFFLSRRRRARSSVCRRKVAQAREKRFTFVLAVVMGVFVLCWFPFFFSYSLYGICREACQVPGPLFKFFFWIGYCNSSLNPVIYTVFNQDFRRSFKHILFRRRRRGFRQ

[3] = biological target: 3',5'-cyclic-AMP phosphodiesterase 4D (Homo sapiens, UniProt Q08499); format: functional
[4] = biological target: T4, 5-hydroxytryptamine receptor 1A (Homo sapiens, UniProt P08908); format: functional, cell-based
T4 sequence (P08908 whole entry): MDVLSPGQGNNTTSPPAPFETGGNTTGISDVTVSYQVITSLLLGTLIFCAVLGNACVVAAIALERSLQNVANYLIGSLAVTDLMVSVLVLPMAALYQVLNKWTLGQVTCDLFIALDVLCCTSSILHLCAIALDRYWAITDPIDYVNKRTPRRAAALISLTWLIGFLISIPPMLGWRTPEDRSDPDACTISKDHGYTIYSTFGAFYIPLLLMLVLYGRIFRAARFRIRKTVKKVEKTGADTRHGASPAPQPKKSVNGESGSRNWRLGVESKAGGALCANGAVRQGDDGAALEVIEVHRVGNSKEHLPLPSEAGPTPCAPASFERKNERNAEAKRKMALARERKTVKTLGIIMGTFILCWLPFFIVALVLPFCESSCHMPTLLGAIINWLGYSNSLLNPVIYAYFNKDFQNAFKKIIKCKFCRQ

Cannabinoid receptor 1 [5] = biological target: T5, Cannabinoid receptor 1 (Homo sapiens, UniProt P21554); format: functional, cell-based
Cannabinoid receptor 1 [6] = biological target: T5, Cannabinoid receptor 1; format: functional, cell-based; remark: listed apart in the source
[7] = biological target: Muscarinic acetylcholine receptor M3 (Homo sapiens, UniProt P20309)
[8] = biological target: 5-hydroxytryptamine receptor 2B (Homo sapiens, UniProt P41595); format: functional, cell-based
Glucocorticoid receptor = biological target: T6, Glucocorticoid receptor (Homo sapiens, UniProt P04150)
T6 sequence (P04150 whole entry): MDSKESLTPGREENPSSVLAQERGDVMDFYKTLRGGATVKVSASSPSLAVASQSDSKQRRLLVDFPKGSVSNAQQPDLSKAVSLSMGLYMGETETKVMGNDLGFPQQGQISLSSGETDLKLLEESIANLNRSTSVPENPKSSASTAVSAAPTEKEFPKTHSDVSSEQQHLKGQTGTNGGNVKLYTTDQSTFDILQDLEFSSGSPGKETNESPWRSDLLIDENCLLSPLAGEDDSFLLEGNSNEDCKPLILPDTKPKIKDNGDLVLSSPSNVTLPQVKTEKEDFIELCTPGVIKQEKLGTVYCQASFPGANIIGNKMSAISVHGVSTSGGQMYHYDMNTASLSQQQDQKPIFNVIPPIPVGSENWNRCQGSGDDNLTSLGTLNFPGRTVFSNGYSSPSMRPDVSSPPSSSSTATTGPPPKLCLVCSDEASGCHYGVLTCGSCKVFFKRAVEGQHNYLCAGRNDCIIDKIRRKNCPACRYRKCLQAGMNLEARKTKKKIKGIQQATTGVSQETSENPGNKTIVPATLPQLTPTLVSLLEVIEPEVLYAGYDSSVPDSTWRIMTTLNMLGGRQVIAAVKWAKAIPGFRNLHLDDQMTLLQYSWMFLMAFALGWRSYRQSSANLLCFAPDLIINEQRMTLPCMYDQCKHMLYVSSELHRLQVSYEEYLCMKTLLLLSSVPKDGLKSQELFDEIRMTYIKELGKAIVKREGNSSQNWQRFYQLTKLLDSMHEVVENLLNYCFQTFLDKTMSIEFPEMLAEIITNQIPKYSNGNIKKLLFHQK
Also: assay procedure not described here.

Chain of 3',5'-cyclic-AMP phosphodiesterase 4D (Q08499 whole entry): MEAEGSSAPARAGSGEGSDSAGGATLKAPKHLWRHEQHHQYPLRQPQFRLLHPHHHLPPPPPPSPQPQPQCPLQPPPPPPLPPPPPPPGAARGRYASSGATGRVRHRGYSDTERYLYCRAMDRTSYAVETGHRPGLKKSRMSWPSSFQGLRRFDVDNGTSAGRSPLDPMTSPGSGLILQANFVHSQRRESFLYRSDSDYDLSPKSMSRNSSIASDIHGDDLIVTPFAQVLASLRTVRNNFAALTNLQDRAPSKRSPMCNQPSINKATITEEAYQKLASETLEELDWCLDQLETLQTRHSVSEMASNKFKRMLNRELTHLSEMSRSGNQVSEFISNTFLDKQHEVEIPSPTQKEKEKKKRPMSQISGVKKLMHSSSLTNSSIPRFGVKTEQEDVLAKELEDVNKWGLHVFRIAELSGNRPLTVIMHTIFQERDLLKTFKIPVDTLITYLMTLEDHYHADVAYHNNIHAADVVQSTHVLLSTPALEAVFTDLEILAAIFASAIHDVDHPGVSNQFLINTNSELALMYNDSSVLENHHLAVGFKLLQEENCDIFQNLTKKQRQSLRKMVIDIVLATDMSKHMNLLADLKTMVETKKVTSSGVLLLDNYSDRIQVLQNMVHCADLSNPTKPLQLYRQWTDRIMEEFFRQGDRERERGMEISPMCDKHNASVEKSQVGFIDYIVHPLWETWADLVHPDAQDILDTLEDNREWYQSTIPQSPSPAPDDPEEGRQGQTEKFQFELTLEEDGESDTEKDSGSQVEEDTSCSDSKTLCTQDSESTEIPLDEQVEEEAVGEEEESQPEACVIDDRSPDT
Chain of Histamine H2 receptor (P25021 whole entry): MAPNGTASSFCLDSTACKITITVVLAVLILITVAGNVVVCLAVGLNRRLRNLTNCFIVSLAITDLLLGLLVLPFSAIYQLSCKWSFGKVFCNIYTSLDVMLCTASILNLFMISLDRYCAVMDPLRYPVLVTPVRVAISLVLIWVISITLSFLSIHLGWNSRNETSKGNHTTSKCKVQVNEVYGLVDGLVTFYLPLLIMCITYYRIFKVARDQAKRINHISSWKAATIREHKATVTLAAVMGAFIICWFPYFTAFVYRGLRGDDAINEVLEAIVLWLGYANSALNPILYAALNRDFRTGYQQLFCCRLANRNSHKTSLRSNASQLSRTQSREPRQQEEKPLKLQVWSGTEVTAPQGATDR
Chain of Vasopressin V2 receptor (P30518 whole entry): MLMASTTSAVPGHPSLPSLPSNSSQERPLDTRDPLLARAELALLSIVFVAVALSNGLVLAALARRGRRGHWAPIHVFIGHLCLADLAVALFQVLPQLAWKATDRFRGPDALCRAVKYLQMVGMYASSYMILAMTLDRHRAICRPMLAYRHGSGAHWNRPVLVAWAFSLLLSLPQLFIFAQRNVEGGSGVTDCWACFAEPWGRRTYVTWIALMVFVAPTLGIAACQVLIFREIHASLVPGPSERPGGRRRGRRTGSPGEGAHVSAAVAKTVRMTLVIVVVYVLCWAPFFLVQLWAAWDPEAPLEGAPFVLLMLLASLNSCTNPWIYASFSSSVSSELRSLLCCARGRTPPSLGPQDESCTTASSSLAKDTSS
Chain of 5-hydroxytryptamine receptor 2B (P41595 whole entry): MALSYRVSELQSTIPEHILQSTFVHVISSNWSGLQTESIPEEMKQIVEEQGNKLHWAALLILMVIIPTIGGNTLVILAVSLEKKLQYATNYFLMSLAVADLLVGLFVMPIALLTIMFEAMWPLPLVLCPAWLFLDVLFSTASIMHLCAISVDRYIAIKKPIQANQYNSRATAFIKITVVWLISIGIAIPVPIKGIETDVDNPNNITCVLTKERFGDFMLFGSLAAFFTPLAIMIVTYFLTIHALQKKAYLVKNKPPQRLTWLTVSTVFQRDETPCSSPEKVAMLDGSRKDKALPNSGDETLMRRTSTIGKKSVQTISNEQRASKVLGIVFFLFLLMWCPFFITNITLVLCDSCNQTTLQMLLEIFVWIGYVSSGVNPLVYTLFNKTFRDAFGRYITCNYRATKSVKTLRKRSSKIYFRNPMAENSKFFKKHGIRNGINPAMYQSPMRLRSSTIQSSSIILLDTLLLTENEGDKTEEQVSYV
Chain of Muscarinic acetylcholine receptor M3 (P20309 whole entry): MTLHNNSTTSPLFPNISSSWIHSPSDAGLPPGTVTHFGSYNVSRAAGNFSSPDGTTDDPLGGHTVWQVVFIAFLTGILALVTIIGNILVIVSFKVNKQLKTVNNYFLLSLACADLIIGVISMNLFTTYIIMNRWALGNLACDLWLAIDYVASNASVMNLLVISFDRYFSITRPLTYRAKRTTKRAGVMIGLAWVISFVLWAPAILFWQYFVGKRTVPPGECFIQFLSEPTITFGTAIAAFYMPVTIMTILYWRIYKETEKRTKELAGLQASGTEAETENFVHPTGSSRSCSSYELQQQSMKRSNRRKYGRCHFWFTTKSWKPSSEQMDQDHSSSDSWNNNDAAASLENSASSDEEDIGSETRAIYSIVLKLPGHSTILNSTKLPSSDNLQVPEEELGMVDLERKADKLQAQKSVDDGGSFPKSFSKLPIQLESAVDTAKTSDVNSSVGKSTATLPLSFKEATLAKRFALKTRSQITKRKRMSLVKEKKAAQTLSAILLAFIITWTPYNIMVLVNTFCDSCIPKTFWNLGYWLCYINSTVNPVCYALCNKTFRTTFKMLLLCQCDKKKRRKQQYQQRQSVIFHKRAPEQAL
T5 sequence (P21554 whole entry): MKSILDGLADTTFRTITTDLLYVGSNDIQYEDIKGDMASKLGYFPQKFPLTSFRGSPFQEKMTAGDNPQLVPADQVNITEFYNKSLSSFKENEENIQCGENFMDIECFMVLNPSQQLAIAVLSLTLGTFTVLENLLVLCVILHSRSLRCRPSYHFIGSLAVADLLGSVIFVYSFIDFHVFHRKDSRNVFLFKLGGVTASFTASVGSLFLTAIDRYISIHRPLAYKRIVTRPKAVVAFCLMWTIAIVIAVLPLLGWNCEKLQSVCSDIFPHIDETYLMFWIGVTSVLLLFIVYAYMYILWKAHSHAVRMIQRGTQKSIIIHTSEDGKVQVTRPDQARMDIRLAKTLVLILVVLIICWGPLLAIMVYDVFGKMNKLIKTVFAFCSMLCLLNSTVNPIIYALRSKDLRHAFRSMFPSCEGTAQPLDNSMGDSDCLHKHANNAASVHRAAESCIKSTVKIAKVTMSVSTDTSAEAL

Structure (SMILES)	AC50 (Vasopressin V2 receptor) [µM]	AC50 (B2 bradykinin receptor) [µM]	AC50 [1] [µM]	AC50 (Histamine H2 receptor) [µM]	AC50 [2] [µM]	AC50 [3] [µM]	AC50 [4] [µM]	AC50 (Cannabinoid receptor 1 [5]) [µM]	AC50 (Cannabinoid receptor 1 [6]) [µM]	AC50 [7] [µM]	AC50 [8] [µM]	AC50 (Glucocorticoid receptor) [µM]
COc1ccc(C(=O)Nc2ccccc2CCC2CCCCN2C)cc1 (stereo unspecified) [ENCAINIDE]	> 30	> 30	> 10	> 10	> 10	> 30	> 10	> 30	> 30	> 10	> 10	> 30
CCOc1ccccc1OCC1CNCCO1 (stereo unspecified) [VILOXAZINE]	> 30	> 30	> 10	> 10	> 10	> 30	> 10	> 30	> 30	> 10	> 10	> 30
CN(C)CCC=C1c2ccccc2C=Cc2ccccc21 [CYCLOBENZAPRINE]	> 30	> 30	> 10	> 10	3.9	> 30	> 10	> 30	> 30	0.35	> 10	> 30
